Experimental data: patent US6365215B1, “Oral sensory perception-affecting compositions containing dimethyl sulfoxide, complexes thereof and salts thereof” (International Flavors & Fragrances Inc., priority 2000, dated 2002)

Assays:
[1] = Comparison of perceived cooling: second compound plus dimethyl sulfoxide vs. second compound alone (Table I); format: in vivo; conditions: scale 0-10
Source text: is admixed with such “second compound(s),” the resulting mixture as stated, supra, has a highly intensified oral sensory perception effect, for example, a “highly intensified cooling effect” or a “highly intensified hot, burning effect.” Such effects are highly desirable in the use of certain oral care products such as mouthwashes, toothpastes and the like as set forth, supra. Thus, the following Table I sets forth a comparison of a “control” which is a “second compound” taken alone vs. the mixture of dimethyl sulfoxide with the said “second compound”: […]

[2] = Perceived cooling in screening base: silica toothpaste base with 0.4% saccharin (Table II); format: in vivo
Source text: The following Table II sets forth the effect in a screening base, in this case: silica toothpaste base containing 0.4% saccharin of various “second compounds” in admixture with dimethyl sulfoxide, as follows: […]

[3] = second compound 30 ppm + DMSO 0.1 ppm
[4] = second compound 30 ppm + DMSO 100 ppm
[5] = second compound alone 30 ppm (control for DMSO 0.1 ppm line)
[6] = second compound alone 30 ppm (control for DMSO 100 ppm line)
[7] = scaled 1-10, 2nd compound 30 ppm + DMSO 0.1 ppm
[8] = scaled 1-10, 2nd compound 30 ppm + DMSO 1 ppm
[9] = scaled 1-10, 2nd compound alone 30 ppm (line of DMSO 0.1 ppm)
[10] = scaled 1-10, 2nd compound alone 30 ppm (line of DMSO 1 ppm)

Compound | Effect of Mixture vs. Control, perceived cooling: mixture [1, 3] | Effect of Mixture vs. Control, perceived cooling: mixture [1, 4] | Effect of Mixture vs. Control, perceived cooling: control [1, 5] | Effect of Mixture vs. Control, perceived cooling: control [1, 6] | Observed Effect Scaled at 1-10 vs. 2nd Compound Alone, perceived cooling: with DMSO [2, 7] | Observed Effect Scaled at 1-10 vs. 2nd Compound Alone, perceived cooling: with DMSO [2, 8] | Observed Effect Scaled at 1-10 vs. 2nd Compound Alone, perceived cooling: 2nd compound alone [2, 9] | Observed Effect Scaled at 1-10 vs. 2nd Compound Alone, perceived cooling: 2nd compound alone [2, 10] | further results
CC1CCC(C(C)C)C(O)C1 (centres unmarked) [Menthol, menthol] | – | – | – | – | – | – | – | – | Effect of Mixture vs. Control, perceived cooling: mixture ([1]; second compound 5 ppm + DMSO 0.1 ppm): 8; Effect of Mixture vs. Control, perceived cooling: mixture ([1]; second compound 10 ppm + DMSO 1 ppm): 9; Effect of Mixture vs. Control, perceived cooling: mixture ([1]; second compound 30 ppm + DMSO 5 ppm): 9.5; Effect of Mixture vs. Control, perceived cooling: mixture ([1]; second compound 100 ppm + DMSO 10 ppm): 8.7; Effect of Mixture vs. Control, perceived cooling: control ([1]; second compound alone 5 ppm (control for DMSO 0.1 ppm line)): 1.5; Effect of Mixture vs. Control, perceived cooling: control ([1]; second compound alone 10 ppm (control for DMSO 1 ppm line)): 1.3; Effect of Mixture vs. Control, perceived cooling: control ([1]; second compound alone 30 ppm (control for DMSO 5 ppm line)): 1.1; Effect of Mixture vs. Control, perceived cooling: control ([1]; second compound alone 100 ppm (control for DMSO 10 ppm line)): 2; Observed Effect Scaled at 1-10 vs. 2nd Compound Alone, perceived cooling: with DMSO ([2]; scaled 1-10, 2nd compound 0.50% + DMSO 1 ppm): 8.2; Observed Effect Scaled at 1-10 vs. 2nd Compound Alone, perceived cooling: 2nd compound alone ([2]; scaled 1-10, 2nd compound alone 0.50% (line of DMSO 1 ppm)): 1.6
CCNC(=O)C1CC(C)CCC1C(C)C (centres unmarked) [WS 3 ®] | 9.3 | 9.0 | 1.5 | 1.6 | 9.1 | 9.0 | 1.7 | 1.6 | –
CC1CCC(C(C)C)C(OC(=O)C(C)O)C1 (centres unmarked) [Menthyl lactate] | 8.4 | 8.2 | 1.7 | 2.1 | – | – | – | – | –
CC1CCC(C(C)C)C(OC(=O)CCC(=O)O)C1 (centres unmarked) [Monomenthyl succinate, menthyl succinate] | – | – | – | – | – | – | – | – | Effect of Mixture vs. Control, perceived cooling: mixture ([1]; second compound 100 ppm + DMSO 0.1 ppm): 9.1; Effect of Mixture vs. Control, perceived cooling: mixture ([1]; second compound 100 ppm + DMSO 100 ppm): 8.7; Effect of Mixture vs. Control, perceived cooling: control ([1]; second compound alone 100 ppm (control for DMSO 0.1 ppm line)): 3.8; Effect of Mixture vs. Control, perceived cooling: control ([1]; second compound alone 100 ppm (control for DMSO 100 ppm line)): 2.5; Observed Effect Scaled at 1-10 vs. 2nd Compound Alone, perceived cooling: with DMSO ([2]; scaled 1-10, 2nd compound 100 ppm + DMSO 0.1 ppm): 9.0; Observed Effect Scaled at 1-10 vs. 2nd Compound Alone, perceived cooling: with DMSO ([2]; scaled 1-10, 2nd compound 100 ppm + DMSO 1 ppm): 9.2; Observed Effect Scaled at 1-10 vs. 2nd Compound Alone, perceived cooling: 2nd compound alone ([2]; scaled 1-10, 2nd compound alone 100 ppm (line of DMSO 0.1 ppm)): 3.5; Observed Effect Scaled at 1-10 vs. 2nd Compound Alone, perceived cooling: 2nd compound alone ([2]; scaled 1-10, 2nd compound alone 100 ppm (line of DMSO 1 ppm)): 3.7
CCC(C)C(C(=O)NC(C)C)C(C)C (centres unmarked) [WS 23 ®] | 9.6 | 9.2 | 2.4 | 2.2 | 9.8 | 9.9 | 2.4 | 2.6 | –
